For 87 compounds, melting point results are on record in a melting point compilation (Tetko et al.; mined from patent text by program, amines drawn as free bases though some values may be those of a salt).

A word on the melting point: it is the temperature, or range, at which the solid turns liquid. In turn, `CCCCN1C(=O)c2cncnc2N(C(=O)CN2CCOCC2)c2ccccc21` returned a melting point of 127 to 128 °C.

`Cc1cc2oc(-c3ccccn3)nc2cc1N=C=S` returned a melting point of 192 to 194 °C.

Compound `COc1ccc(C(C)(C)OC)cc1CN[C@H]1C2CCN(CC2)[C@H]1C(c1ccccc1)c1ccccc1` came in with a melting point of 127 °C.

With `COC(=O)C[C@H]1C[C@H](C=Cc2c(-c3ccc(F)cc3)c(-c3ccc(F)cc3)c(C(=O)OCc3ccccc3)n2C(C)C)OC(C)(C)O1`, the melting point was 125 to 127 °C.

As for `COc1ccc2c(c1O)CC(C(=O)O)N(C(=O)N(C)c1ccccc1)C2` (racemic), the melting point is 235 to 255 °C.

On to `CCCc1cc(CC(=O)OC)ccc1OC1COc2ccc(C(C)=O)c(O)c2C1` (configuration not stated), for which the melting point lay within 59 to 60 °C.

The compound `CCC(CCNC(=O)CC#N)NC(=O)CC#N` (configuration not stated) displayed a melting point of 125 °C.

Compound `Cc1cccc(Cc2c[nH]cn2)c1` returned a melting point of 127 to 130 °C.

Compound `Oc1ccc(-c2ccc3ccccc3c2)nc1` showed a melting point of 168 to 169 °C.

Regarding `CC1COC(c2cnc(C3=NC(C)(C(C)C)C(=O)N3)c(C(=O)O)c2)O1` (configuration not stated), the melting point lay in the range of 50 to 62 °C.

For `O=C1NN=C(c2ccc(NC(=O)C3CC3(Cl)Cl)cc2)C2CC12` (configuration not stated), the melting point lay within 264 to 265 °C.

The compound `Cc1ccc(N2C(=O)C(O)=C(C(=O)c3ccc(OC(F)(F)F)cc3)C2c2ccc(C(C)C)cc2)nn1` (configuration not stated) yielded a melting point of 269 °C.

With `CCOC(=O)c1csc(-c2ccc3c(=O)n(CC(C)C)c(CNC(=O)OC(C)(C)C)c(-c4ccccc4)c3c2)n1`, the melting point was in the range of 170 to 171 °C.

`CCCCc1c(C)c(NC(=O)CC(C)(C)C)c(C)c2c1OCC2c1ccc(C(C)C)cc1` (configuration not stated): the melting point fell in the range of 149 to 151 °C.

`Cc1ccc(C(=C/C=C/C(=O)NCCCCc2cccnc2)c2ccc(C)cc2)cc1` displayed a melting point of 144 to 146 °C.

`O=S(=O)(Nc1cccc(C=C2c3ccccc3CCc3ccccc32)c1)c1ccccc1`: the melting point amounted to 122 °C.

`NC(=O)N1C(=O)C(C(=O)c2cccs2)c2ccncc21` (configuration not stated) displayed a melting point of 213 to 215 °C.

As for `COCCn1nc2c3c(c(NCCNCCO)ccc31)C(=O)c1c(O)ccc(O)c1-2`, the melting point lay within 174 to 178 °C.

Regarding `CCCC1=C(C(=O)OCC)C(c2cccc(OC)c2OC)c2c[nH]nc2N1` (configuration not stated), the melting point lay in the range of 205 to 206 °C.

With `COc1cc(OCc2ccccn2)ccc1/C=C/c1cc(/C=C/c2ccc(OCc3ccccn3)cc2OC)[nH]n1`, the melting point fell in the range of 195 to 197 °C.

Turning to `CCc1cc(C(=O)c2ccccc2Cl)c(-n2c(CNC(=O)c3cc4ccccc4[nH]3)nnc2C(C)C)s1`, the melting point fell in the range of 209 to 211 °C.

`O=c1ccn(-c2cc3[nH]c(=O)c(=O)[nH]c3cc2[N+](=O)[O-])cc1` registered a melting point of over 300 °C.

Take `CC(=O)Nc1c(C(=O)c2cccc(OCc3ccccc3)c2)[nH]c2cc(Cl)ccc12`: the melting point was in the range of 159 to 161 °C.

The compound `CS(=O)(=O)NCCc1ccncc1` displayed a melting point of 114 to 116 °C.

With `Cc1c(Br)c2ccccn2c1C(=O)c1cc(Cl)c(O)c(Cl)c1`, the melting point amounted to 240 °C.

`O=CN(O)C(CO)CS(=O)(=O)c1ccc(Oc2ccc(OC(F)(F)F)cc2)cc1` (configuration not stated) showed a melting point of 115 to 117 °C.

Take `O=S(=O)(O)NCc1cc(I)cc(I)c1O`: the melting point fell in the range of 168 to 170 °C.

Turning to `CC(O)c1nccc(=O)[nH]1` (configuration not stated), the melting point was in the range of 121 to 124 °C.

In turn, `CCOC(=O)N/N=C/c1ccc(OC)c(OC2CCCC2)c1` gave a melting point of 146 to 147 °C.

`Cc1oc(-c2ccccc2)nc1COc1ccc(Cn2cc(CCC(=O)O)c(Oc3ccc(C(F)(F)F)cn3)n2)cc1` yielded a melting point of 107 to 108 °C.

With `Cc1c(C=CCN2CC=C(c3ccccc3)CC2)cnn1-c1ncccn1`, the melting point lay within 112 to 114 °C.

For `CCSc1c(Nc2c(C)c(=O)c2=O)ccc2[nH]cc(CCCO)c12`, the melting point came to 119 °C.

The compound `CCCn1c(COC)nc2c(N)nc3ccc(OCCCN4CCN(c5ccccn5)CC4)cc3c21` yielded a melting point of 196 to 197 °C.

Take `COc1ccc(-n2ccc(O)n2)cc1`: the melting point is 167 to 170 °C.

As to `COc1ccc2c(c1)C=C(c1ccc3c(c1)NC(=O)CO3)C(c1ccccc1)O2` (configuration not stated), the melting point is 200 °C.

For the compound `Cn1c(COc2ccc(CC3SC(=O)NC3=O)cc2)nc2ccc(Oc3ccc(NC(=O)c4cc(C(C)(C)C)c(O)c(C(C)(C)C)c4)cc3)cc21` (configuration not stated), the melting point fell in the range of 160 to 162 °C.

`CC(C)(C)[C@H]1CC[C@H](CCC(=O)O)CC1`: the melting point lay in the range of 105 to 107 °C.

For the compound `CN(C(=O)CCCOc1ccc2[nH]c(=O)oc(=O)c2c1)C1CCCCC1`, the melting point was in the range of 222 to 224 °C.

`COc1cc(C(F)(F)F)cc(OC)c1-c1csc(NC(=O)c2cc3ccccc3[nH]2)n1` yielded a melting point of over 260 °C.

`CC(C)(C)C1=CC(=Cc2ccc([N+](=O)[O-])cc2)C=C(C(C)(C)C)C1=O`: the melting point is 162 to 163 °C.

Turning to `CCOC(=O)C(C)n1c(-c2ccc(Cl)cc2)nc2cccnc21` (configuration not stated), the melting point lay within 103 to 106 °C.

`CCc1noc(-c2cn(-c3ccc(OC)c(OC)c3)cn2)n1`: the melting point stood at 143 °C.

With `Cc1nc2c(-c3cccc(N4CCN(CCO)CC4)c3)cnn2c(N)c1-c1ccc(F)cc1`, the melting point fell in the range of 209 to 212 °C.

Compound `O=C(NCC1(c2ccccc2)CCCCC1)Nc1cccc(Cl)c1Cl` showed a melting point of 214 to 215 °C.

For the compound `O=S1(=O)NCN(C2CC2)c2cccc(Br)c21`, the melting point is 189 to 191 °C.

Regarding `CCC(O)(c1ccc(OCCN(C(C)C)C(C)C)cc1)c1ccccc1OC` (configuration not stated), the melting point fell in the range of 46 to 47 °C.

`CSc1nccc(Oc2ccc(NC(=O)c3cc(F)cc(N4CCCCC4)c3)c3ccccc23)n1` had a melting point of 130 to 132 °C.

With `CCCCc1cn(CCCC)c(=O)n1Cc1ccc(-c2cccnc2-c2nnn[nH]2)cc1`, the melting point lay in the range of 178 to 180 °C.

`Oc1nc(Cc2ccc(F)cc2)ncc1F` had a melting point of 169 to 170 °C.

Compound `Cc1c(F)cccc1C(=O)Nc1ccc(C(=O)N2Cc3ccnn3Cc3ccccc32)cc1` yielded a melting point of 245 to 250 °C.

Compound `CS(=O)(=O)c1ccc(-c2cc(C(=O)CCCCCO)nn2C2CCCCC2)cc1` yielded a melting point of 125 to 127 °C.

Consider `Cc1ccc2c3c(ccc2n1)OC[C@H](CN1CCN(c2cccc4c2OCCO4)CC1)O3`, for which the melting point fell in the range of 154 to 155 °C.

For the compound `O=C(O)Cc1cccc(Cc2nc3c(F)c(F)cc(F)c3s2)c1Cl`, the melting point is 156 to 158 °C.

`CCCC(=O)NCCCn1c(C)nc2c(N)nc3ccccc3c21`: the melting point was in the range of 222 to 223 °C.

Consider `CCCCCCCCOc1ccc(-c2ncc(Br)cn2)c(F)c1`, for which the melting point is 7.16 °C.

Regarding `CCc1nn(C2CCCC2)c2cc(C(=O)NCc3ccncc3)ccc12`, the melting point fell in the range of 147 to 149 °C.

`CC(C)C(=O)C(O)(Cc1ccc(Cl)cc1Cl)c1cccnc1` (configuration not stated) registered a melting point of 144 to 145 °C.

As for `CN1CCC(NCc2ccccc2)(c2ccccc2)C(O)C1` (configuration not stated), the melting point was in the range of 162 to 164 °C.

The compound `O=S(Cc1c(F)cccc1Cl)c1nc2cnccc2[nH]1` (configuration not stated) showed a melting point of 180 to 183 °C.

`O=C(C1CCCN1C(=O)CCCN1C(=O)c2ccccc2C1=O)N1CCCC1` (configuration not stated) registered a melting point of 148 to 149 °C.

Consider `CC(=O)NC1CCCN(c2c(F)cc3c(=O)c(C(=O)O)cn(C4CC4)c3c2F)C1` (configuration not stated), for which the melting point lay in the range of 280 to 282 °C.

The compound `O=C(OCCN1C(=O)C=C(c2ccccc2)C1=O)c1cc([N+](=O)[O-])cc([N+](=O)[O-])c1` showed a melting point of 179 to 181 °C.

Compound `CCCCCCCCCCOc1ccc(-c2ccccc2)cc1` yielded a melting point of 70 to 73 °C.

For the compound `C=C(C)COc1ccc2c(=O)c(C)c(-c3ccccc3)oc2c1C(=O)C=Cc1ccccc1`, the melting point was in the range of 145 to 147 °C.

On to `OC(CN1CC=C(c2c[nH]c3ccccc23)CC1)C1COc2ccccc2O1` (configuration not stated), for which the melting point is 177 °C.

Regarding `O=c1[nH]c2ccccc2n1C1CCN(CCCOc2ccc(F)cc2Cl)CC1`, the melting point was 149 to 150 °C.

Consider `CCOC(=O)CC(=O)CCNC(=O)OCc1ccccc1`, for which the melting point lay within 25 to 27 °C.

`Nc1ccc(OC(F)(F)F)c(-c2nc3ccccc3o2)c1` displayed a melting point of 133 to 135 °C.

In turn, `N#Cc1cn(-c2c(Cl)cc(C(F)(F)F)cc2Cl)nc1C(F)(F)F` came in with a melting point of 116 to 118 °C.

For the compound `COC(=O)c1c(C)oc2ccccc2c1=O`, the melting point lay in the range of 116 to 118 °C.

In turn, `COC(=S)c1ccc(-c2ccccc2)c(S(C)(=O)=O)c1` had a melting point of 155 to 156 °C.

For the compound `CCCCc1cc(SCc2ccc(-c3ccc(C(F)(F)F)cc3)cc2)ccc1OCC(=O)O`, the melting point fell in the range of 155 to 157 °C.

On to `CN(Cc1cc(C(F)(F)F)cc(C(F)(F)F)c1)C(=O)c1ncc2ccccc2c1-c1ccccc1`, for which the melting point was in the range of 139 to 140 °C.

`COC(=O)c1ccc(Oc2cc3c(cc2C)C(C)(C)CCC3(C)C)cc1` returned a melting point of 133 to 135 °C.

For `Fc1ccc2[nH]c3c4ccccc4nc-3c(Cl)c2c1`, the melting point was 208 to 210 °C.

Compound `CN(C)C=C(C#N)C(=O)c1ccco1` gave a melting point of 117 to 125 °C.

`CCOCC(=O)Nc1ccc(Br)c(-n2nc(CC)n(Cc3ccc(-c4ccccc4S(=O)(=O)NC(=O)OC(C)(C)C)cc3F)c2=O)c1` registered a melting point of 132 to 134 °C.

The compound `O=C1OC(c2ccccc2)=NC1=Cc1cccnc1` yielded a melting point of 164 °C.

Consider `CC(C)Cn1c(=O)n(C)c(=O)c2c(Sc3cccs3)c(Cn3cnc4ccccc43)sc21`, for which the melting point stood at 198 °C.

In turn, `Cc1cccc(NC(=O)NCC(=O)N(CC(=O)OC(C)(C)C)c2ccc([N+](=O)[O-])cc2)c1` came in with a melting point of 152 °C.

Take `NNC(=O)Cc1ccccc1S(N)(=O)=O`: the melting point lay within 116 to 125 °C.

In the case of `Cc1cccc(C)c1N1C(=S)N(C)C(O)C1O` (configuration not stated), the melting point lay in the range of 140 to 143 °C.

Compound `CC(C)(C)c1ccc(O)c(C=NO)c1` came in with a melting point of 116 to 118 °C.

`CSC(=NC#N)NCCSCc1cccnc1Nc1ccccc1`: the melting point fell in the range of 120 to 123 °C.

With `O=C(CN1CCC(Oc2ccccc2)CC1)Nc1ccc2[nH]c(=O)oc2c1`, the melting point is 190 to 196 °C.

For the compound `CC(C)=CCCC(C)C1CCC2C3CC(O)C4CC(O)CCC4(C)C3CCC12C` (configuration not stated), the melting point lay in the range of 188 to 190 °C.

`Cc1ccc(-c2ccc(C)c(C)n2)cc1` displayed a melting point of 76 °C.
